Test results taken from paper PMC9055962 (RSC Advances, 2020).
Values after ≈ are worked out from the molar mass of the structure shown.

Columns and labels:
S. aureus ATCC 25923 = experiment: Broth microdilution MIC / MBC assay, S. aureus; assay type: cell-based; settings: Staphylococcus aureus; for MIC: ATCC25923, 24 h, read-out: Antibacterial activity MIC; for MBC: ATCC25923, read-out: Antibacterial activity MBC
E. coli ATCC 25922 = experiment: Broth microdilution MIC / MBC assay, E. coli; assay type: cell-based; settings: Escherichia coli; for MIC: ATCC25922, 24 h, read-out: Antibacterial activity MIC; for MBC: ATCC25922, read-out: Antibacterial activity MBC
S. aureus = settings: cited from earlier work

Row | MIC (S. aureus ATCC 25923) | MIC (E. coli ATCC 25922) | Compound | MBC (S. aureus ATCC 25923) | MBC (E. coli ATCC 25922) | minimum inhibitory concentration (MIC) (S. aureus)
1 | > 1110 µM | > 1110 µM | O=C(O)/C=C/c1ccc(O)c(O)c1 [CA, caffeic acid] | > 1110 µM | > 1110 µM | –
2 | 383 µM (≈ 100 µg/mL) | 3 µM (≈ 0.784 µg/mL) | CCn1cc(C(=O)O)c(=O)c2cc3c(cc21)OCO3 [OA, oxolinic acid] | > 766 µM | 6 µM (≈ 1.57 µg/mL) | –
3 | – | – | Fc-WRWRW | – | – | 7 µM
4 | – | – | WRWRWR | – | – | 16 µM
